Test results reported in patent publication US7252953B2, “Method of detecting and preventing Alzheimer's disease, particularly at prodromal and early stages” (United States of America Department of Veterans Affairs, priority 2002, dated 2007).
Entries after “also recorded” stand apart in the source; their conditions may differ.

How the values were obtained:
[Ca^2+]i = Ca2+ imaging (Fluo-4) in microglial cells; type: cell-based, murine; settings: sAβ-pretreated cells (500 nM sAβ1-42), then 100 nM thrombin
Experimental: (§1) Primary microglial cultures were prepared from neonatal mouse (C57BL6) brains as previously described (Reference 29) and maintained in Delbecco's modified Eagle's medium with F-12 nutrient mixture (DMEM/F12) containing 10% fetal bovine sera (FBS) and antibiotics. N9 clonal murine microglial cell cultures were maintained in Iscoves modified Delbecco's medium (IMDM) containing 5% heat-inactivated FBS, 2 mM L-glutamine, 50 μM 2-mercaptoethanol and antibiotics. Treatment of both primary and N9 microglial cells were performed under serum-free conditions. Freshly solublized Aβ (BioSource, Camarillo, Calif.) peptides were prepared and characterized as previously described (References 30 and 44) and were used in all in vitro experiments. Unless specified, cells were always pretreated with sAβ for 5 min and then followed by challenge with α-thrombin (100 nM or as indicated), glutamate (2 mM) or LPS (5 ng/ml).
We measured [Ca^2+]i in microglial cells using Fluo-4 (2 μM) with the aid of a Nikon BioRadiance triple laser scanning confocal microscope. Image collection, quantification and data analysis were performed as previously described (Reference 29).
(§2) In previous studies, we found thrombin signaling via PARs in microglial cells involving [Ca^2+]i increase and transient activation of both p38 and p44/42 mitogen-activated protein kinases (MAPKs) (Reference 29). To understand potential consequences of GRK dysfunction induced by sAβ, for these studies we also assessed changes in thrombin signaling in sAβ-pretreated microglial cells.
(§3) FIG. 5A, N9 microglial cells were pre-treated with 500 nM sAβ1-42 (arrow “1”) followed by 100 nM thrombin treatment (arrow “2”). Changes in [Ca^2+]i were measured as previously described (Reference 29) from three separate experiments. […] For both FIGS. 5B and 5C, lane M=Marker, 1=Control (0 min), 2=Control (25 min), 3=Aβ1-42 (25 min), 4=Thrombin (20 min), 5=Aβ1-42+thrombin (20 min post-Aβ), 6=Control (24 h), 7=Aβ1-42 (24 h), 8=Thrombin (24 h) and 9=Aβ1-42+thrombin (24 h post-Aβ). “P” and “T” indicate phosphorylated and total p38 or p44/42 MAPKs, respectively.

PARs-GRKs binding = test: Inhibition of GRK-PAR binding by sAβ-pretreatment in microglial cells (IP and WB, all examined PARs and GRKs); type: cell-based, murine; settings: sAβ1-42 500 nM pretreatment 5 min, then 100 nM thrombin 30 seconds
Experimental: as §1, with “Unless specified, cells were always pretreated with sAβ for 5 min and then followed by challenge with α-thrombin (100 nM or as indicated), glutamate (2 mM) or LPS (5 ng/ml).” left out
Cultured cells were lysed in pre-chilled 2×IP buffer I (Tris, 20 mM, pH 7.4; NaCl, 300 mM; EDTA, 2 mM; 2 mM EGTA, pH 8.0; 0.4 mM sodium ortho-vanadate, 2% Triton X-100; 1% NP-40; 0.4 mM PMSF) supplemented both with phosphatase and protease inhibitor cocktails. After centrifugation, the supernatants were collected and total protein concentrations were determined by the bicinchoninic acid assay (BCA). […] Both antibodies to GRK2 and GRK5 (Santa Cruz) were diluted 1:500 for WB, other routine procedures, WB for total and phospho-p44/42 MAPK, and semi-quantitative analysis of protein band density were performed as previously described (Reference 29). […]

[1] = system: fibrillar actin (F-actin); test: Phalloidin staining of F-actin in microglial cells; type: cell-based, murine
Experimental: Microglial cells were seeded onto poly-L-lysine-coated 8-chamber slides at a density of 1×10^4/well. After various treatments, cells were immediately fixed with pre-chilled (4° C.) 5% acetic acid in methanol for 45 min at 4° C., followed by washing with PBS. The fixed cells were blocked and double-stained with phalloidin-FITC (1:1,000) and anti-GRK5 (1:500) or GRK2 (1:500). Secondary antibody-Cy3 conjugates (1:500) staining, washing, mounting and confocal microscopic visualization were performed routinely as previously described (Reference 29).
Microglial-mediated inflammation is an important pathological component of AD (Reference 28). […] Thrombin, a serine protease is known to activate protease-activated GPCRs, (PARs) such as PAR1 (Reference 29) and PAR4 in microglia. The sAβ preparation used in this study has been previously characterized as composed principally of conformational intermediates by CD-spectrum (Reference 30) and a mixture of monomeric and oligomeric Aβ by Western blotting.

TNF-α [2] = test: TNF-α release in N9 clonal murine microglial cells; type: cell-based
Experimental: as §1
(§4) TNF-α production in microglial culture media was measured and standardized as previously described (Reference 29).
(§5) Given our results that sAβ disrupts GRK function and inhibits GPCR desensitization in microglia, we next investigated whether such signaling dysregulation might lead to cellular functional changes in microglia. Both primary and N9 clonal murine microglial cultures were used and TNF-α secretion in culture media was measured as an outcome. […] Moreover, the potentiation effect of sAβ on thrombin and glutamate-induced microglial activation was dose-dependent, with a minimal effective concentration (ECmin) of 20 nM and a maximal EC (ECmax) of 500 nM. Furthermore, the enhancement effect was not observed if sAβ was given after (10 min) thrombin or glutamate treatments. […] Together with the evidence that sAβ inhibits GRK-GPCR interactions and causes prolongation of GPCR signaling, we conclude that sAβ, by disrupting GRK function, alters microglial reactivity to specific GPCR activators.
FIG. 6A, pretreatment with sAβ1-42 potentiated (p<0.01) TNF-α release induced by increasing doses of thrombin (Thr) as indicated from primary mouse brain microglial cultures. n=4. […] The ECmin and ECmax for sAβ's potentiation are approximately 20 nM and 500 nM, respectively. n=6.

p44/42 MAPK = p44/42 MAPK phosphorylation in microglial cells (WB); type: cell-based, murine
Experimental: as §1
(§6) Cultured cells were lysed in pre-chilled 2×IP buffer I (Tris, 20 mM, pH 7.4; NaCl, 300 mM; EDTA, 2 mM; 2 mM EGTA, pH 8.0; 0.4 mM sodium ortho-vanadate, 2% Triton X-100; 1% NP-40; 0.4 mM PMSF) supplemented both with phosphatase and protease inhibitor cocktails. After centrifugation, the supernatants were collected and total protein concentrations were determined by the bicinchoninic acid assay (BCA). Equal amounts (250 μg) of cell lysates from each group were mixed with 20 μl (˜5 μg) of either PAR1 or PAR4 antibodies, and brought to a total volume of 1 ml in 1×IP buffer. Following a 1 hour incubation at 4° C., appropriate secondary antibody-agarose conjugates were added followed by incubation (30 min with agitation), centrifugation and sufficient washes. The pellets were resuspended in 30 μl of electrophoresis sample buffer and boiled for 5 min. The supernatants were directly used for polyacrylamide sodium dodecyl sulfate gel electrophoresis (SDS-PAGE) and WB analysis. To prepare subcellular fractions of brain samples, we homogenized fresh or fresh-frozen tissues in Tris buffered saline solution (Tris, 10 mM, pH 7.4; NaCl, 150 mM; EDTA, 1 mM; 1 mM EGTA, pH 8.0; 0.2 mM sodium ortho-vanadate) supplemented with protease inhibitor cocktails. After centrifugation (12,000 g at 4° C. for 15 min), the supernatants were collected as cytosolic fractions. The pellets were resuspended in 1×IP buffer containing protease inhibitor cocktail. Following brief sonication and centrifugation (12,000 g at 4° C. for 15 min), the supernatants were collected as membrane fractions. Both antibodies to GRK2 and GRK5 (Santa Cruz) were diluted 1:500 for WB, other routine procedures, WB for total and phospho-p44/42 MAPK, and semi-quantitative analysis of protein band density were performed as previously described (Reference 29).
as §2, §3

p38 MAPK = p38 MAPK phosphorylation in microglial cells (WB); type: cell-based, murine
Experimental: as §1, §6, §2, §3

TNF-α [3] = test: TNF-α release in primary mouse brain microglial cultures; type: cell-based
Experimental: as §1, §4, §5
FIG. 6A, pretreatment with sAβ1-42 potentiated (p<0.01) TNF-α release induced by increasing doses of thrombin (Thr) as indicated from primary mouse brain microglial cultures. n=4. […]

[4] = 5 min pretreatment, N9 cells, FIG. 6B
[5] = sAβ pretreatment (5 min) followed by thrombin, within 20 min post-Aβ treatment
[6] = sAβ-pretreatment followed by thrombin, 24 h
[7] = substance alone, within 20 min post-Aβ treatment

## sAβ: Soluble β-amyloid, chain length not stated at the place; sAβ1-42 (500 nM) in Examples 3-6
[Ca^2+]i
  [Ca^2+]i reached by the subsequent slow climb, without decrease: greater than 450 nM
PARs-GRKs binding
  binding of all examined PARs to GRKs after thrombin in sAβ-pretreated cells: essentially abolished; also recorded: almost completely abolished
[1]
  formation of fibrillar actin (F-actin): caused rapid formation of fibrillar actin (F-actin)
TNF-α [2]; [4]
  effect of sAβ pretreatment on LPS-induced TNF-α release: not
  effect of sAβ pretreatment on glutamate-induced TNF-α release: significantly potentiated
  effect of sAβ pretreatment on thrombin-induced TNF-α release: significantly potentiated
TNF-α [2]; nM concentrations, N9 clonal microglial cultures
  TNF-α release induced by sAβ alone: insufficient to induce significant TNF-α release; also recorded: not significant
TNF-α [2]; potentiation of thrombin- and glutamate-induced TNF-α release
  maximal EC (ECmax) of sAβ's potentiation: 500 nM
TNF-α [2]; sAβ given 10 min after thrombin or glutamate
  enhancement of TNF-α release when sAβ is given after thrombin or glutamate (post-treatment): not observed
p44/42 MAPK; [5]
  p44/42 MAPK phosphorylation: increased phosphorylation
p44/42 MAPK; [6]
  p44/42 MAPK phosphorylation: remained elevated; also recorded: persistent phosphorylation
p44/42 MAPK; substance alone, 24 h
  p44/42 MAPK phosphorylation: returned to basal levels
p44/42 MAPK; [7]
  p44/42 MAPK phosphorylation: increased phosphorylation
p38 MAPK; [5]
  p38 MAPK phosphorylation: increased phosphorylation
p38 MAPK; [6]
  p38 MAPK phosphorylation: remained elevated; also recorded: persistent phosphorylation
p38 MAPK; substance alone, 24 h
  p38 MAPK phosphorylation: returned to basal levels
p38 MAPK; [7]
  p38 MAPK phosphorylation: increased phosphorylation
TNF-α [3]; 5 min pretreatment, FIG. 6A
  effect of sAβ pretreatment on thrombin-induced TNF-α release: significantly potentiated
TNF-α [3]; nM concentrations
  TNF-α release induced by sAβ alone: insufficient to induce significant TNF-α release
